Test results as given in US10065990B2, “Cyclic peptide compound, and preparation method, pharmaceutical composition and use thereof” (HANGZHOU GUANYU BIO-MEDICAL CO., LTD, priority 2013, dated 2018).

Experiments:
HDAC7 = target: T1, HDAC7 (Homo sapiens, UniProt Q8WUI4); experiment: HDAC biochemical activity measurement (fluorescent substrate deacetylation);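 further: fluorogenic deacetylation assay using acetyl-lysine substrate at 20 µM, enzyme and compound incubated 30 min at 37 °C, then developer added, fluorescence read at 360/460 nm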; details: HDAC7; 37° C. 30 minutes
T1 sequence (Q8WUI4 1-952): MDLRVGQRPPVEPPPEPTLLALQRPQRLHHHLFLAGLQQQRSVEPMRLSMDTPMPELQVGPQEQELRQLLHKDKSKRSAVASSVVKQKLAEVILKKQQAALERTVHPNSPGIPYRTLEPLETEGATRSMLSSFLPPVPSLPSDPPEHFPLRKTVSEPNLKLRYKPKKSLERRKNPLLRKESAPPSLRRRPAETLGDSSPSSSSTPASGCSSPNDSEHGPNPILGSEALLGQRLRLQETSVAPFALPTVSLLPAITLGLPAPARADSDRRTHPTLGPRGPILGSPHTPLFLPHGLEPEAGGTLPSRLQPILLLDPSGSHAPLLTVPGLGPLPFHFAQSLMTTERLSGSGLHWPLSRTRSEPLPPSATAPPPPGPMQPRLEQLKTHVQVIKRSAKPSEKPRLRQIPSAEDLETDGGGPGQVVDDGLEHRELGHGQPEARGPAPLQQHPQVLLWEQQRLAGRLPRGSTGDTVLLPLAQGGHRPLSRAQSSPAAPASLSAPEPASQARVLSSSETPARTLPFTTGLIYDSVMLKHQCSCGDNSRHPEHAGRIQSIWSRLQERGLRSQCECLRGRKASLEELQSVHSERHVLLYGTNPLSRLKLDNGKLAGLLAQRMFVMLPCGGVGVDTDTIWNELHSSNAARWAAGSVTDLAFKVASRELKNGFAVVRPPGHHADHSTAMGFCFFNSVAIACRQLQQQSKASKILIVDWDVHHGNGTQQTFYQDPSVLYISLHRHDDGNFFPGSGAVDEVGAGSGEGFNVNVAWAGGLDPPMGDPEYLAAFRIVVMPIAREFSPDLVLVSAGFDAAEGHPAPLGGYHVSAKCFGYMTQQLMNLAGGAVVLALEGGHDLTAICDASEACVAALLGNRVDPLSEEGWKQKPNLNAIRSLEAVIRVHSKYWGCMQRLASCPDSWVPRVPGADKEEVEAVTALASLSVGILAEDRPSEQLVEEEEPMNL

[1] = tested on: A549 (human lung cancer cells); experiment: MTT cancer cell growth inhibition; type: cell-based; details: Homo sapiens, A549, 72 h, A549 cells, MTT, 72 hours incubation; read-out: GI50 A54
Outline: (§1)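 Cells seeded at 1500/well in DMEM or RPMI 1640 with 10% FBS, incubated overnight, then exposed to compound at 10^−5 to 10^−10 M final in triplicate for 72 h at 37° C, 5% CO2. MTT added for 4 h, formazan dissolved in DMSO, absorbance read at 570 nm; GI50 derived from viability.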

[2] = tested on: MDA-MB-231 (breast cancer cells); experiment: MTT cancer cell growth inhibition; type: cell-based; details: Homo sapiens, MDA-MB-231, 72 h, read-out: GI50 MDA-MB-231, MTT, 72 hours incubation, MDA-MB-231 cells
Outline: as §1

[3] = tested on: U937 (human leukemia cells); experiment: MTT cancer cell growth inhibition; type: cell-based; details: Homo sapiens, U-937, 72 h, U937 cells, MTT, 72 hours incubation; read-out: GI50 U93
Outline: as §1

[4] = tested on: MOLT-4 (human acute lymphoblastic leukemia cells); experiment: MTT cancer cell growth inhibition; type: cell-based; details: Homo sapiens, MOLT-4, 72 h, MOLT-4 cells, MTT, 72 hours incubation; read-out: GI50 Mol
Outline: as §1

[5] = tested on: HCC827 (human non-small cell lung cancer cells); experiment: MTT cancer cell growth inhibition; type: cell-based; details: Homo sapiens, HCC827, 72 h, MTT, 72 hours incubation, HCC827 cells; read-out: GI50 HCC827
Outline: as §1

[6] = tested on: lncap (prostate cancer cells); experiment: MTT cancer cell growth inhibition; type: cell-based; details: Homo sapiens, LNCaP, 72 h, lncap cells, MTT, 72 hours incubation; read-out: GI50 lnca
Outline: as §1

[7] = tested on: BGC-823 (human gastric cancer cells); experiment: MTT cancer cell growth inhibition; type: cell-based; details: Homo sapiens, BGC-823, 72 h, BGC-823 cells, MTT, 72 hours incubation; read-out: GI50 BG
Outline: as §1

[8] = tested on: KBM5-T315I (human chronic myelogenous leukemia); experiment: MTT cancer cell growth inhibition; type: cell-based; details: Homo sapiens, 72 h, MTT, 72 hours incubation, KBM5-T315I cells; read-out: GI50 KBM5-T315I
Outline: as §1

[9] = tested on: PANC-1 (Pac-1, human pancreatic cancer cells); experiment: MTT cancer cell growth inhibition; type: cell-based; details: Homo sapiens, PANC-1, 72 h, PANC-1 cells, MTT, 72 hours incubation; read-out: GI50 PAN
Outline: as §1

[10] = tested on: Huh-7 (human hepatoma cells); experiment: MTT cancer cell growth inhibition; type: cell-based; details: Homo sapiens, Huh-7, 72 h, MTT, 72 hours incubation, Huh-7 cells; read-out: GI50 Huh-7
Outline: as §1

[11] = tested on: KBM-5 (human chronic myelogenous leukemia); experiment: MTT cancer cell growth inhibition; type: cell-based; details: Homo sapiens, KBM5, 72 h, MTT, 72 hours incubation, KBM-5 cells; read-out: GI50 KBM-5
Outline: as §1

[12] = tested on: Hela (human cervical cancer cells); experiment: MTT cancer cell growth inhibition; type: cell-based; details: Homo sapiens, HeLa, 72 h, Hela cells, MTT, 72 hours incubation; read-out: GI50 Hela
Outline: as §1

[13] = tested on: MCF-7 (human breast cancer cells); experiment: MTT cancer cell growth inhibition; type: cell-based; details: Homo sapiens, MCF7, 72 h, MCF-7 cells, 72 hours incubation, read-out: GI50 MCF
Outline: as §1

[14] = tested on: DU145 (human prostate cancer cells); experiment: MTT cancer cell growth inhibition; type: cell-based; details: Homo sapiens, DU-145, 72 h, DU145 cells, MTT, 72 hours incubation; read-out: GI50 Du1
Outline: as §1

[15] = tested on: N-87 (human gastric cancer cells); experiment: MTT cancer cell growth inhibition; type: cell-based; details: Homo sapiens, 72 h, MTT, 72 hours incubation, N-87 cells; read-out: GI50 N-87
Outline: as §1

[16] = tested on: SGC-7901 (human gastric cancer cells); experiment: MTT cancer cell growth inhibition; type: cell-based; details: Homo sapiens, SGC-7901, 72 h, MTT, 72 hours incubation, SGC-7901 cells; read-out: GI50 SGC-7901
Outline: as §1

[17] = tested on: H1975 (non-small cell lung adenocarcinoma); experiment: MTT cancer cell growth inhibition; type: cell-based; details: Homo sapiens, NCI-H1975, 72 h, MTT, 72 hours incubation, H1975 cells; read-out: GI50 H1975
Outline: as §1

[18] = tested on: Bel-7402 (human hepatoma cells); experiment: MTT cancer cell growth inhibition; type: cell-based; details: Homo sapiens, Bel-7402, 72 h, MTT, 72 hours incubation, Bel-7402 cells; read-out: GI50 Bel-7402
Outline: as §1

[19] = tested on: K562 (human leukemia cells); experiment: MTT cancer cell growth inhibition; type: cell-based; details: Homo sapiens, K562, 72 h, MTT, 72 hours incubation, K562 cells; read-out: GI50 K562
Outline: as §1

[20] = tested on: HT1080 (human fibrosarcoma cells); experiment: MTT cancer cell growth inhibition; type: cell-based; details: Homo sapiens, HT-1080, 72 h, HT1080 cells, MTT, 72 hours incubation; read-out: GI50 HT1
Outline: as §1

SMILES | IC50 HDAC7 (HDAC7) | GI50 [1] | GI50 [2] | GI50 [3] | GI50 [4] | GI50 [5] | GI50 [6] | GI50 [7] | GI50 [8] | GI50 [9] | GI50 [10] | GI50 [11] | GI50 [12] | GI50 [13] | GI50 [14] | GI50 [15] | GI50 [16] | GI50 [17] | GI50 [18] | GI50 [19] | also measured
C/C=C1\NC(=O)c2cc(SC)cc(n2)CNC(=O)C[C@@H](/C=C/CCSC(=O)CC)OC(=O)[C@H](C(C)C)NC1=O [Compound 163] | no activity | 50 nM | 58 nM | 30 nM | 40 nM | 47 nM | 30 nM | 60 nM | 23 nM | 70 nM | 107 nM | 75 nM | 10 nM | 20 nM | 40 nM | 39 nM | 49 nM | 45 nM | 26 nM | 58 nM | GI50 [20]: 10 nM
C/C=C1\NC(=O)c2ccc(SC)c(n2)CNC(=O)C[C@@H](/C=C/CCSC(=O)CC)OC(=O)[C@H](C(C)C)NC1=O [Compound 164] | no activity | 60 nM | 96 nM | 60 nM | 50 nM | 28 nM | 30 nM | 340 nM | 47 nM | 80 nM | 95 nM | 73 nM | 20 nM | 30 nM | 50 nM | 41 nM | 28 nM | 81 nM | 38 nM | 62 nM | GI50 [20]: 20 nM
C/C=C1\NC(=O)c2nc(ccc2SC)CNC(=O)C[C@@H](/C=C/CCSC(C)=O)OC(=O)[C@H](C(C)C)NC1=O [Compound 165] | no activity | 30 nM | 53 nM | 50 nM | 40 nM | 43 nM | 20 nM | 20 nM | 34 nM | 70 nM | 28 nM | 41 nM | 60 nM | 30 nM | 60 nM | 32 nM | 76 nM | 12 nM | 30 nM | 57 nM | GI50 [20]: 60 nM
